From ChEMBL document CHEMBL4507325 (2021)

Assays:
[1] = target: Alpha-2C adrenergic receptor (Homo sapiens) (UniProt P18825); conditions: Compound concentration 10.0 uM
[2] = target: T1, GABA-A receptor; anion channel (Rattus norvegicus) (UniProt O09028+P15431+P18506+P18508+P19969+P20236+P23574+P23576+P28471+P28473+P30191+P62813+P63079+P63138+Q91ZM7+Q9ES14); conditions: Compound concentration 10.0 uM
[3] = target: Sodium-dependent noradrenaline transporter (Homo sapiens) (UniProt P23975); conditions: Compound concentration 10.0 uM
[4] = target: 5-hydroxytryptamine receptor 2B (Homo sapiens) (UniProt P41595); conditions: Compound concentration 10.0 uM
[5] = target: Insulin receptor (Homo sapiens) (UniProt P06213); conditions: Rattus norvegicus; Compound concentration 10.0 uM
[6] = target: 5-hydroxytryptamine receptor 1A (Homo sapiens) (UniProt P08908); conditions: Compound concentration 10.0 uM
[7] = target: B2 bradykinin receptor (Homo sapiens) (UniProt P30411); conditions: Compound concentration 10.0 uM
[8] = target: 5-hydroxytryptamine receptor 5A (Homo sapiens) (UniProt P47898); conditions: Compound concentration 10.0 uM
[9] = target: Sodium-dependent noradrenaline transporter (Homo sapiens) (UniProt P23975); conditions: Compound concentration 10.0 uM; remark: listed apart in the source
[10] = target: Motilin receptor (Homo sapiens) (UniProt O43193); conditions: Compound concentration 10.0 uM
[11] = target: 5-hydroxytryptamine receptor 1B (Homo sapiens) (UniProt P28222); conditions: Compound concentration 10.0 uM
[12] = target: Alpha-2A adrenergic receptor (Homo sapiens) (UniProt P08913); conditions: Compound concentration 10.0 uM
[13] = target: Progesterone receptor (Homo sapiens) (UniProt P06401); conditions: Compound concentration 10.0 uM
[14] = target: Alpha-2C adrenergic receptor (Homo sapiens) (UniProt P18825); conditions: Compound concentration 10.0 uM; remark: listed apart in the source
[15] = target: Equilibrative nucleoside transporter 1/2/3/4 (Homo sapiens) (UniProt Q99808+Q7RTT9+Q14542+Q9BZD2); conditions: Compound concentration 10.0 uM
[16] = target: Mu-type opioid receptor (Homo sapiens) (UniProt P35372); conditions: Compound concentration 10.0 uM
[17] = target: Beta-3 adrenergic receptor (Homo sapiens) (UniProt P13945); conditions: Compound concentration 10.0 uM
[18] = target: T1, GABA-A receptor; anion channel (Rattus norvegicus); conditions: Compound concentration 10.0 uM; remark: listed apart in the source
[19] = target: T1, GABA-A receptor; anion channel (Rattus norvegicus); conditions: Compound concentration 10.0 uM; remark: listed apart in the source
[20] = target: Alpha-1D adrenergic receptor (Homo sapiens) (UniProt P25100); conditions: Compound concentration 10.0 uM
[21] = target: D(2) dopamine receptor (Homo sapiens) (UniProt P14416); conditions: Compound concentration 10.0 uM
[22] = target: Sigma non-opioid intracellular receptor 1 (Homo sapiens) (UniProt Q99720); conditions: Compound concentration 10.0 uM
[23] = target: Muscarinic acetylcholine receptor M3 (Homo sapiens) (UniProt P20309); conditions: Compound concentration 10.0 uM
[24] = target: D(4) dopamine receptor (Homo sapiens) (UniProt P21917); conditions: Compound concentration 10.0 uM
[25] = target: Androgen receptor (Homo sapiens) (UniProt P10275); conditions: Compound concentration 10.0 uM
[26] = target: Adenosine receptor A2a (Homo sapiens) (UniProt P29274); conditions: Compound concentration 10.0 uM
[27] = target: B1 bradykinin receptor (Homo sapiens) (UniProt P46663); conditions: Compound concentration 10.0 uM
[28] = target: Glutamate receptor 2 (Homo sapiens) (UniProt P42262); conditions: Rattus norvegicus; Compound concentration 10.0 uM
[29] = target: Sodium-dependent dopamine transporter (Homo sapiens) (UniProt Q01959); conditions: Compound concentration 10.0 uM
[30] = target: 5-hydroxytryptamine receptor 2B (Homo sapiens) (UniProt P41595); conditions: Compound concentration 10.0 uM; remark: listed apart in the source
Homo sapiens = organism: Homo sapiens; conditions: Compound concentration 10.0 uM
[31] = target: Vasopressin V1a receptor (Homo sapiens) (UniProt P37288); conditions: Compound concentration 10.0 uM
[32] = target: Estrogen receptor (Homo sapiens) (UniProt P03372); conditions: Compound concentration 10.0 uM
[33] = target: T1, GABA-A receptor; anion channel (Rattus norvegicus); conditions: Compound concentration 10.0 uM; remark: listed apart in the source
[34] = target: Sodium-dependent serotonin transporter (Homo sapiens) (UniProt P31645); conditions: Compound concentration 10.0 uM
[35] = target: Histamine H1 receptor (Homo sapiens) (UniProt P35367); conditions: Compound concentration 10.0 uM
[36] = target: Muscarinic acetylcholine receptor M4 (Homo sapiens) (UniProt P08173); conditions: Compound concentration 10.0 uM
[37] = target: Muscarinic acetylcholine receptor M1 (Homo sapiens) (UniProt P11229); conditions: Compound concentration 10.0 uM
[38] = target: Growth hormone secretagogue receptor type 1 (Homo sapiens) (UniProt Q92847); conditions: Compound concentration 10.0 uM
[39] = target: Cannabinoid receptor 2 (Homo sapiens) (UniProt P34972); conditions: Compound concentration 10.0 uM
[40] = target: Beta-2 adrenergic receptor (Homo sapiens) (UniProt P07550); conditions: Compound concentration 10.0 uM
[41] = target: Beta-1 adrenergic receptor (Homo sapiens) (UniProt P08588); conditions: Compound concentration 10.0 uM

Sequence of Sodium-dependent noradrenaline transporter (Homo sapiens) (P23975 whole entry): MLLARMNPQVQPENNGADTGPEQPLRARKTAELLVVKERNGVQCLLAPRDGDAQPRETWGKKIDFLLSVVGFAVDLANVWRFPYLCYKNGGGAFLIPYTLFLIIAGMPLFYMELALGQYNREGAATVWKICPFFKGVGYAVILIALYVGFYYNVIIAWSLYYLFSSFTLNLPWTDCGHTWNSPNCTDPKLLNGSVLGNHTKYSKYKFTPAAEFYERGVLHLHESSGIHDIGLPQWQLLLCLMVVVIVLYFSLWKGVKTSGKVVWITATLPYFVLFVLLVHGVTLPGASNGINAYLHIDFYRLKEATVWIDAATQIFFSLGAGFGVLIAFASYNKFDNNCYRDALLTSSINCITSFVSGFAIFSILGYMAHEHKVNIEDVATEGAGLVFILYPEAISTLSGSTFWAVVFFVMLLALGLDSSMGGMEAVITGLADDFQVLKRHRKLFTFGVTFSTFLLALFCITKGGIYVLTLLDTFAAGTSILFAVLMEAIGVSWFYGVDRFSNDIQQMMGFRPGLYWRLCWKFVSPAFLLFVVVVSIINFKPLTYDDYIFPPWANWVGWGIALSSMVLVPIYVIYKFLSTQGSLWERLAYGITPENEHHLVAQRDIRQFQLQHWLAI
Sequence of 5-hydroxytryptamine receptor 2B (Homo sapiens) (P41595 whole entry): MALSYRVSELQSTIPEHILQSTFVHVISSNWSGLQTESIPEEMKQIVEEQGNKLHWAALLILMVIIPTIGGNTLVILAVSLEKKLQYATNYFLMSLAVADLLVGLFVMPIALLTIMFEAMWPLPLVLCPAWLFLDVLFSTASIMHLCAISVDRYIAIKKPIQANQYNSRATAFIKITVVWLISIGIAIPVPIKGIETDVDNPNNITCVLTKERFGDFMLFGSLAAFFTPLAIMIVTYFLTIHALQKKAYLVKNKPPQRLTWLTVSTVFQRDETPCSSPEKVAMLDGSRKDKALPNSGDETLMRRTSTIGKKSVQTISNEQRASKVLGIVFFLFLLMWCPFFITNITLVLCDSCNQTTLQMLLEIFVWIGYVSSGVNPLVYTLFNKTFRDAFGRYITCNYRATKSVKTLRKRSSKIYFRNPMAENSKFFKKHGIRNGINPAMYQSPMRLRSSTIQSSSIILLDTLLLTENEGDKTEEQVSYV
Sequence of Alpha-2C adrenergic receptor (Homo sapiens) (P18825 whole entry): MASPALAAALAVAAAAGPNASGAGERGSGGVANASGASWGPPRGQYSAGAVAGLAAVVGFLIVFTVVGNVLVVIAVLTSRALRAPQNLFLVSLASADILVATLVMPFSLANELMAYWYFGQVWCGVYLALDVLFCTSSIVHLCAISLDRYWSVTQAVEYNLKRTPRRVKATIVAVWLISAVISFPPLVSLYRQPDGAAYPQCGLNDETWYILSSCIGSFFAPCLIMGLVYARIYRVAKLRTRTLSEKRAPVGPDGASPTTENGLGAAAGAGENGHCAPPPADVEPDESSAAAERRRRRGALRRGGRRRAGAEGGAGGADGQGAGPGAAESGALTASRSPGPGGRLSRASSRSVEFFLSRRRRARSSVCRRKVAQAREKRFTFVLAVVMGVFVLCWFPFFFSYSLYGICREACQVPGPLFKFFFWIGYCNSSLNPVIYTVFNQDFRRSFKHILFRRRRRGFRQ
Sequence of Mu-type opioid receptor (Homo sapiens) (P35372 whole entry): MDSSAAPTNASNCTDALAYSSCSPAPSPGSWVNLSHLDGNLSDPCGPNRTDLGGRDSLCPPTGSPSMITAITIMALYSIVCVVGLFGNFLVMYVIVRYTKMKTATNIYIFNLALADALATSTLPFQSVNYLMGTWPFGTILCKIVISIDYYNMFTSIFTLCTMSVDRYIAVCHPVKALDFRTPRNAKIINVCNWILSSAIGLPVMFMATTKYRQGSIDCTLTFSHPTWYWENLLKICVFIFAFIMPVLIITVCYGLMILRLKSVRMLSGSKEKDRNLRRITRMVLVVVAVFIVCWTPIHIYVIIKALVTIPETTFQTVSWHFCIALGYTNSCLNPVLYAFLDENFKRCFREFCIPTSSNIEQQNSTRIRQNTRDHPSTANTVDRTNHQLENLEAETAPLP
Sequence of Vasopressin V1a receptor (Homo sapiens) (P37288 whole entry, looked up): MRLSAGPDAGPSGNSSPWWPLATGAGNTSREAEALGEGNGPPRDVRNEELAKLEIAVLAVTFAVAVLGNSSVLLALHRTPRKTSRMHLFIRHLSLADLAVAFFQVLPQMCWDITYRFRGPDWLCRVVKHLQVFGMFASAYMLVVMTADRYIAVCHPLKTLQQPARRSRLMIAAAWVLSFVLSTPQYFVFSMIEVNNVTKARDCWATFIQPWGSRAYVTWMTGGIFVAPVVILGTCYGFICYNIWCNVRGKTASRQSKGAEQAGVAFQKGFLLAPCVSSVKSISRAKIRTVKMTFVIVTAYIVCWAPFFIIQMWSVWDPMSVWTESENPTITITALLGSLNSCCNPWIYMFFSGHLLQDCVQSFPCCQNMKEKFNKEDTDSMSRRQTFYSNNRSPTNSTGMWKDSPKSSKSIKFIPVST
Sequence of 5-hydroxytryptamine receptor 5A (Homo sapiens) (P47898 whole entry): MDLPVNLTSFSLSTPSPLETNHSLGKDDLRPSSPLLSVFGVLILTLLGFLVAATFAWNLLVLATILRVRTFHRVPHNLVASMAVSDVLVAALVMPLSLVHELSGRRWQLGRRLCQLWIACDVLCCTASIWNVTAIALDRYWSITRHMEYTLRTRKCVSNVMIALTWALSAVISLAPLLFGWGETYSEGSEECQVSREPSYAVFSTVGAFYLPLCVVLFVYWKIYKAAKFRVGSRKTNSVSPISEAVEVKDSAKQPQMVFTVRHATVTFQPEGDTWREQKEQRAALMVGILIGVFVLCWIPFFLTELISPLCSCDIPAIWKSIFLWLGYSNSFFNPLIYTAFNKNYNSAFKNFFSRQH
Sequence of B1 bradykinin receptor (Homo sapiens) (P46663 whole entry): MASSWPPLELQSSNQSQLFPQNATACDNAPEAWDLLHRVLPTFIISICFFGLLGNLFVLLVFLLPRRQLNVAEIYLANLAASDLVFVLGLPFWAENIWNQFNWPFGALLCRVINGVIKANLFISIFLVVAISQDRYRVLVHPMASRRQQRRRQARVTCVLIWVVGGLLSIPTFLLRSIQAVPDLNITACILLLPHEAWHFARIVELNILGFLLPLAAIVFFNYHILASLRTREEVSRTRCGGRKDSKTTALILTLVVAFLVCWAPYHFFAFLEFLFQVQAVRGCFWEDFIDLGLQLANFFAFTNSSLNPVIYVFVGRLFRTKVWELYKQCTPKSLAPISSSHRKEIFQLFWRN
Sequence of B2 bradykinin receptor (Homo sapiens) (P30411 whole entry): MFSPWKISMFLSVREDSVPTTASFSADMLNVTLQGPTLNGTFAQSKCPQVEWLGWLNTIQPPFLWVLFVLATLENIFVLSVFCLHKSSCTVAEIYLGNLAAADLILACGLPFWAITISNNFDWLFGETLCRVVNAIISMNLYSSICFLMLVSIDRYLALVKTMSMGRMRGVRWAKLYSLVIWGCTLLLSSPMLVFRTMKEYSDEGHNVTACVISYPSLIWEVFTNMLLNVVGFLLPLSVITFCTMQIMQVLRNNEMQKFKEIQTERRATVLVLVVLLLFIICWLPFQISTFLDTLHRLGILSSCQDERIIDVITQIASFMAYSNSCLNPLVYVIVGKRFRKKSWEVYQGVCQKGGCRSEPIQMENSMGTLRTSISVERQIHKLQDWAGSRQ
Sequence of Androgen receptor (Homo sapiens) (P10275 whole entry): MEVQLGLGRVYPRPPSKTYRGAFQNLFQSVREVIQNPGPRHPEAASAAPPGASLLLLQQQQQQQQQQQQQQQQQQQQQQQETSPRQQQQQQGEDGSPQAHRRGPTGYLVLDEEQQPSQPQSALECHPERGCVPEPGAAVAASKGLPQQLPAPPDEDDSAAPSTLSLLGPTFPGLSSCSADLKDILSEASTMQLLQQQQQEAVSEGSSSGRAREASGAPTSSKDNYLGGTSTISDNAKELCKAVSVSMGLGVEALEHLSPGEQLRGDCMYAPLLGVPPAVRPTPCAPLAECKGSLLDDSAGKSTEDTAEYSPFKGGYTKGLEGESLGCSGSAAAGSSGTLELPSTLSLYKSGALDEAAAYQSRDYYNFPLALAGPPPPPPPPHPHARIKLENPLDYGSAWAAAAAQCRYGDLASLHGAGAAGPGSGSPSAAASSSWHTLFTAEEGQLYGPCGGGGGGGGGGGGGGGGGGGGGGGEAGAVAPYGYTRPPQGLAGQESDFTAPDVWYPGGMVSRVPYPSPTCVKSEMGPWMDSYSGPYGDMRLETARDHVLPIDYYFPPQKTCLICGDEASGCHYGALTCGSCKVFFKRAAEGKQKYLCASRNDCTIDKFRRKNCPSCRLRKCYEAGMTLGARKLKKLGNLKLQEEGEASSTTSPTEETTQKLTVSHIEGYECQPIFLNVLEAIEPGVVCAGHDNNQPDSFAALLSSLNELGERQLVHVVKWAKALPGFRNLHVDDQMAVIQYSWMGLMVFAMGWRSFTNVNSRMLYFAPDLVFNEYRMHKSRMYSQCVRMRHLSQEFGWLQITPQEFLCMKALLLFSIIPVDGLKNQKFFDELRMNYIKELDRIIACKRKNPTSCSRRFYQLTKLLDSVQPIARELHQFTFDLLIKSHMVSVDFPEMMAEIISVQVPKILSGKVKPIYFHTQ
Sequence of Muscarinic acetylcholine receptor M4 (Homo sapiens) (P08173 whole entry): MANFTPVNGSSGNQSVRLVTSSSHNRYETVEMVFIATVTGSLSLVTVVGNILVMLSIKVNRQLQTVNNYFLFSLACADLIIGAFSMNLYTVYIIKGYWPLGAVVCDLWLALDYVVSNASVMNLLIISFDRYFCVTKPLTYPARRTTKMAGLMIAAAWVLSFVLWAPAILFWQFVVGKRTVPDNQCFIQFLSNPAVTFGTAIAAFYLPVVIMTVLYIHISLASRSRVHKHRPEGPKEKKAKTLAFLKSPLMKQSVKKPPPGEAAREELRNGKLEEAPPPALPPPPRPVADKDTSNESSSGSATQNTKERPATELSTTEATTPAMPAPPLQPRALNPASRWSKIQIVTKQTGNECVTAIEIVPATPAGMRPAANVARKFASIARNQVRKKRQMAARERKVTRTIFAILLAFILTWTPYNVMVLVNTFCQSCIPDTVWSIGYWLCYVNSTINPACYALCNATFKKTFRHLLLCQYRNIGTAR

inhibition [1]: 6%
inhibition [2]: 16.3%
inhibition [3]: -1.01%
inhibition [4]: 1%
inhibition [5]: 15%
inhibition [6]: 8.88%
inhibition [7]: 1%
inhibition [8]: 5.61%
inhibition [9]: 22%
inhibition [10]: 4%
inhibition [11]: 4.02%
inhibition [12]: 2%
inhibition [13]: -4%
inhibition [14]: 10.8%
inhibition [15]: 28%
inhibition [16]: 0%
inhibition [17]: 22.9%
inhibition [18]: 4%
inhibition [19]: 11.3%
inhibition [20]: -5.48%
inhibition [21]: -5%
inhibition [22]: 19%
inhibition [23]: -7%
inhibition [24]: 9.05%
inhibition [25]: 9%
inhibition [26]: -6%
inhibition [27]: -8%
inhibition [28]: 11%
inhibition [29]: 33%
inhibition [30]: -0.49%
inhibition (Homo sapiens): -8%
inhibition [31]: 7%
inhibition [32]: 6%
inhibition [33]: 15%
inhibition [34]: 3%
inhibition [35]: -2%
inhibition [36]: -8.67%
inhibition [37]: 8%
inhibition [38]: 1%
inhibition [39]: -5%
inhibition [40]: 11.2%
inhibition [41]: 3%
SMILES: Cc1ccccc1Oc1cc(-n2c(=O)cc(C(F)(F)F)[nH]c2=O)c2ccccc2c1Cl [BAY-069]
